IC50 data for 26 compounds are collected here from patent publication US20170362243A1, “BIARYLETHER IMIDAZOPYRAZINE BTK INHIBITORS” (MERCK SHARP & DOHME CORP., priority 2014, published 2017).

Structures are written as SMILES.

T1 sequence (Q06187 whole entry): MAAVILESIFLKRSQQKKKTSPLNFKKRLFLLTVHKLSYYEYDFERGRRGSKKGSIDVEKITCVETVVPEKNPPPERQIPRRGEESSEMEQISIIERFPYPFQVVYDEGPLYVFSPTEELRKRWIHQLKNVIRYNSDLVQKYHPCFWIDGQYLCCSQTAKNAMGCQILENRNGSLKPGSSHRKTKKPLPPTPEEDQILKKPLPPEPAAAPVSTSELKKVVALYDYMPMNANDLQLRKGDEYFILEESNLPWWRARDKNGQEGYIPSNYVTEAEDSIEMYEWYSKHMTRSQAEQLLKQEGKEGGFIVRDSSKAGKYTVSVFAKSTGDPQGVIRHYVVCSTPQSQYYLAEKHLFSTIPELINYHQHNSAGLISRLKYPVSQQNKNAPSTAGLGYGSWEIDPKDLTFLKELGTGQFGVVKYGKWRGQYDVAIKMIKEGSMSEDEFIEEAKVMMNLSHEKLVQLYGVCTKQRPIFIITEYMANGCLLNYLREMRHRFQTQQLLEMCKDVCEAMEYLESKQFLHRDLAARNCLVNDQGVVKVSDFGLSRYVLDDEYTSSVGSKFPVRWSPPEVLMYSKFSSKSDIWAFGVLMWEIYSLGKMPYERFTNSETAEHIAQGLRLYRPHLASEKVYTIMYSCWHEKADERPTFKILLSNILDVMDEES

The experiment has as its target T1, BTK enzyme (recombinant full-length BTK, hBTK) (Homo sapiens, UniProt Q06187).
T1 construct: recombinant protein from baculovirus-transfected Sf9 cells: full-length BTK, 6HIS-tag cleaved; 6HIS (cleaved yes); made in house; host or cells: baculovirus-transfected Sf9 cells
Briefly: Btk enzyme activity assay, LANCE TR-FRET. It is filed as biochemical. The note with it: 50 pM hBTK, 2 μM biotin-A5-peptide, 25 μM ATP, 60 minute compound & enzyme incubation, read-out: BTK binding IC50. On the procedure:
BTK enzymatic activity was determined with the LANCE (Lanthanide Chelate Excite) TR-FRET (Time-resolved fluorescence resonance energy transfer) assay. In this assay, the potency (IC50) of each compound was determined from an eleven point (1:3 serial dilution; final compound concentration range in assay from 1 μM to 0.017 nM) titration curve using the following outlined procedure. To each well of a black non-binding surface Corning 384-well microplate (Corning Catalog #3820), 5 nL of compound (2000 fold dilution in final assay volume of 10 μL) was dispensed, followed by the addition of 7.5 μL of 1× kinase buffer (50 mM Hepes 7.5, 10 mM MgCl2, 0.01% Brij-35, 1 mM EGTA, 0.05% BSA & 1 mM DTT) containing 5.09 pg/μL (66.67 pM) of BTK enzyme (recombinant protein from baculovirus-transfected Sf9 cells: full-length BTK, 6HIS-tag cleaved). Following a 60 minute compound & enzyme incubation, each reaction was initiated by the addition of 2.5 μL 1× kinase buffer containing 8 μM biotinylated “A5” peptide (Biotin-EQEDEPEGDYFEWLE-NH2) (SEQ.ID.NO.: 1), and 100 μM ATP. The final reaction in each well of 10 μL consists of 50 pM hBTK, 2 μM biotin-A5-peptide, and 25 μM ATP. Phosphorylation reactions were allowed to proceed for 120 minutes. Reactions were immediately quenched by the addition of 20 uL of 1× quench buffer (15 mM EDTA, 25 mM Hepes 7.3, and 0.1% Triton X-100) containing detection reagents (0.626 nM of LANCE-Eu-W1024-anti-phosphoTyrosine antibody, PerkinElmer and 86.8 nM of Streptavidin-conjugated Dylight 650, Dyomics/ThermoFisher Scientific). After 60 minutes incubation with detection reagents, reaction plates were read on a PerkinElmer EnVision plate reader using standard TR-FRET protocol. Briefly, excitation of donor molecules (Eu-chelate:anti-phospho-antibody) with a laser light source at 337 nm produces energy that can be transferred to Dylight-650 acceptor molecules if this donor:acceptor pair is within close proximity. Fluorescence intensity at both 665 nm (acceptor) and 615 nm (donor) are measured and a TR-FRET ratio calculated for each well (acceptor intensity/donor intensity). IC50 values were determined by 4 parameter robust fit of TR-FRET ratio values vs. (Log10) compound concentrations.
The following Table 3 provides specific IC50 values for all the examples. The IC50 values set forth below were determined according to Assay method described above.
Consider `Nc1nccn2c([C@@H]3CCC[C@@H](C(=O)O)C3)nc(-c3ccc(Oc4ccccc4)cc3)c12` (relative stereo) [Example 30, Trans-3-(8-amino-1-(4-phenoxyphenyl)imidazo[1,5-a]pyrazin-3-yl)cyclohexanecarboxylic acid], for which the IC50 was determined as 0.18 nM.

Consider `Nc1nccn2c(C3CCC(C(=O)O)O3)nc(-c3ccc(Oc4ccccc4)cc3)c12` (single isomer, unassigned) [Example 26, 5-[8-amino-1-(4-phenoxyphenyl)imidazo[1,5-a]pyrazin-3-yl]tetrahydrofuran-2-carboxylic acid (E1)], for which the IC50 came out at 12.5 nM.

Regarding `Nc1nccn2c(C3CCC(C(=O)O)O3)nc(-c3ccc(Oc4ccccc4)cc3)c12` (single isomer, unassigned) [Example 27, 5-[8-amino-1-(4-phenoxyphenyl)imidazo[1,5-a]pyrazin-3-yl]tetrahydrofuran-2-carboxylic acid (E2)], the IC50 came to 12.5 nM.

In the case of `CC1(C(=O)O)CCC(C)(c2nc(-c3ccc(Oc4ccccc4)cc3)c3c(N)nccn23)C1` (single isomer, unassigned) [Example 28, 3-[8-amino-1-(4-phenoxyphenyl)imidazo[1,5-a]pyrazin-3-yl]-1,3-dimethylcyclo-pentanecarboxylic acid (E1)], the IC50 turned out to be 0.23 nM.

Regarding `CC1(C(=O)O)CCC(C)(c2nc(-c3ccc(Oc4ccccc4)cc3)c3c(N)nccn23)C1` (single isomer, unassigned) [Example 29, 3-[8-amino-1-(4-phenoxyphenyl)imidazo[1,5-a]pyrazin-3-yl]-1,3-dimethylcyclo-pentanecarboxylic acid (E2)], the IC50 came to 1.3 nM.

On to `CC(C)[C@@]1(C(=O)O)CCC(c2nc(-c3ccc(Oc4cccc(F)c4)cc3)c3c(N)nccn23)C1` (stereo in doubt) [Example 4, (1R,3S)-3-{8-amino-1-[4-(3-fluorophenoxy)phenyl]imidazo[1,5-a]pyrazin-3-yl}-1-(1-methylethyl)cyclo-pentanecarboxylic acid], for which the 50% inhibitory concentration (IC50) is 4.4 nM.

In the case of `CC(C)C1(C(=O)O)CC[C@H](c2nc(-c3ccc(Oc4cccc(F)c4)cc3)c3c(N)nccn23)C1` (stereo in doubt) [Example 5, (1R,3S)-3-{8-amino-1-[4-(3-fluorophenoxy)phenyl]imidazo[1,5-a]pyrazin-3-yl}-1-(1-methylethyl)cyclo-pentanecarboxylic acid], the IC50 amounted to 1.4 nM.

Take `Nc1nccn2c(N3CCC[C@H](C(=O)O)C3)nc(-c3ccc(Oc4ccccc4)cc3)c12` [Example 1, (S)-1-(8-amino-1-(4-phenoxyphenyl)imidazo[1,5-a]pyrazin-3-yl)piperidine-3-carboxylic acid]: the 50% inhibitory concentration (IC50) was 2.7 nM.

Regarding `CC(C)[C@]1(C(=O)O)CC[C@@H](c2nc(-c3ccc(Oc4cccc(F)c4)cc3)c3c(N)nccn23)C1` [Example 2, (1S,3R)-3-{8-amino-1-[4-(3-fluorophenoxy)phenyl]imidazo[1,5-a]pyrazin-3-yl}-1-(1-methylethyl)cyclo-pentanecarboxylic acid], the IC50 worked out at 2 nM.

With `CC(C)[C@@]1(C(=O)O)CC[C@H](c2nc(-c3ccc(Oc4cccc(F)c4)cc3)c3c(N)nccn23)C1` [Example 3, (1R,3S)-3-{8-amino-1-[4-(3-fluorophenoxy)phenyl]imidazo[1,5-a]pyrazin-3-yl}-1-(1-methylethyl)cyclo-pentanecarboxylic acid], the IC50 amounted to 19.5 nM.

For `Nc1nccn2c(C34CCC(C(=O)O)(CC3)CC4)nc(-c3ccc(Oc4ccccc4)cc3)c12` [Example 6, 4-[8-amino-1-(4-phenoxyphenyl)imidazo[1,5-a]pyrazin-3-yl]bicyclo[2.2.2]octane-1-carboxylic acid], the IC50 came out at 0.09 nM.

In the case of `CC(C)(C(=O)O)C1CCC(c2nc(-c3ccc(Oc4ccccc4)cc3)c3c(N)nccn23)C1` (centres unmarked) [Example 7, 2-{3-[8-amino-1-(4-phenoxyphenyl)imidazo[1,5-a]pyrazin-3-yl]cyclopentyl}-2-methylpropanoic acid], the concentration for half-maximal inhibition (IC50) is 2.1 nM.

For the compound `CC1(C)[C@@H](c2nc(-c3ccc(Oc4ccccc4)cc3)c3c(N)nccn23)CC[C@@]1(C)C(=O)O` [Example 8, (1R,3S)-3-[8-amino-1-(4-phenoxyphenyl)imidazo [1,5-a]pyrazin-3-yl]-1,2,2-trimethylcyclopenta-carboxylic acid], the IC50 amounted to 0.7 nM.

Turning to `Nc1nccn2c([C@@H]3CCC[C@H](C(=O)O)C3)nc(-c3ccc(Oc4ccccc4)cc3)c12` [Example 9, (1S,3R)-3-[8-amino-1-(4-phenoxyphenyl)imidazo[1,5-a]pyrazin-3-yl]cyclohexanecarboxylic acid], the concentration for half-maximal inhibition (IC50) is 7.1 nM.

Consider `CC1(C(=O)O)CCCC(c2nc(-c3ccc(Oc4ccccc4)cc3)c3c(N)nccn23)C1` (centres unmarked) [Example 10, 3-[8-amino-1-(4-phenoxyphenyl)imidazo [1,5-a]pyrazin-3-yl]-1-mehtylcyclohexane-carboxylic acid], for which the IC50 amounted to 1.6 nM.

Consider `Nc1nccn2c1c(-c1ccc(Oc3cccc(F)c3)cc1)nc2[C@H]1CC[C@@H](C(=O)O)CC1` [Example 11, cis-4-{8-amino-1-[4-(3-fluorophenoxy)phenyl]imidazo[1,5-a]pyrazin-3-yl}cyclohexanecarboxylic acid], for which the concentration for half-maximal inhibition (IC50) stood at 14.3 nM.

`Nc1nccn2c1c(-c1ccc(Oc3cccc(F)c3)cc1)nc2[C@H]1CC[C@H](C(=O)O)CC1` [Example 12, trans-4-{8-amino-1-[4-(3-fluorophenoxy)phenyl]imidazo[1,5-a]pyrazin-3-yl}cyclohexanecarboxylic acid]: the IC50 turned out to be 1 nM.

As to `C[C@]1(C(=O)O)CCC[C@@H](c2nc(-c3ccc(Oc4cccc(F)c4)cc3)c3c(N)nccn23)C1` [Example 13, (1S,3R)-3-{8-amino-1-[4-(3-fluorophenoxy)phenyl]imidazo[1,5-a]pyrazin-3-yl}-1-methylcyclohexanecarboxylic acid], the IC50 came to 5.9 nM.

As for `C[C@]1(C(=O)O)CCC[C@@H](c2nc(-c3ccc(Oc4ccccc4)cc3)c3c(N)nccn23)C1` [Example 14, (1S,3R)-3-[8-amino-1-(4-phenoxyphenyl)imidazo [1,5-a]pyrazin-3-yl]-1-methylcyclohexane-carboxylic acid], the IC50 was 2.4 nM.

As for `C[C@@]1(C(=O)O)CCC[C@H](c2nc(-c3ccc(Oc4ccccc4)cc3)c3c(N)nccn23)C1` [Example 15, (1R,3S)-3-[8-amino-1-(4-phenoxyphenyl)imidazo [1,5-a]pyrazin-3-yl]-1-methylcyclohexane-carboxylic acid], the IC50 amounted to 1.3 nM.

With `C[C@@]1(C(=O)O)CCC[C@H](c2nc(-c3ccc(Oc4cccc(F)c4)cc3)c3c(N)nccn23)C1` [Example 16, (1R,3S)-3-{8-amino-1-[4-(3-fluorophenoxy)phenyl]imidazo[1,5-a]pyrazin-3-yl}-1-methylcyclohexane-carboxylic acid], the half-inhibitory concentration (IC50) was found to be 3.3 nM.

Take `Nc1nccn2c1c(-c1ccc(Oc3ccccc3)cc1)nc2[C@H]1CC[C@H](C(=O)O)CC1` [Example 17, trans-4-[8-amino-1-(4-phenoxyphenyl)imidazo [1,5-a]pyrazin-3-yl]cyclohexane-carboxylic acid]: the IC50 came to 0.5 nM.

As to `CC1(C)[C@@H](C(=O)O)C[C@H]1c1nc(-c2ccc(Oc3ccccc3)cc2)c2c(N)nccn12` [Example 18, (1 S,3R)-3-(8-amino-1-(4-phenoxyphenyl)imidazo[1,5-a]pyrazin-3-1)-2,2-dimethylcyclobutanecarboxylic acid], the IC50 was determined as 3.5 nM.

`CCC[C@]1(C(=O)O)CCC[C@@H](c2nc(-c3ccc(Oc4ccccc4)cc3)c3c(N)nccn23)C1` [Example 19, (1S,3R)-3-[8-amino-1-(4-pheenoxyphenyl)imidazo[1,5-a]pyrazin-3-yl]-1-propylcyclohexane-carboxylic acid]: the IC50 was 200 nM.

Turning to `CCC[C@@]1(C(=O)O)CCC[C@@H](c2nc(-c3ccc(Oc4ccccc4)cc3)c3c(N)nccn23)C1` [Example 20, (1R,3R)-3-[8-amino-1-(4-phenoxyphenyl)imidazo[1,5-a]pyrazin-3-yl]-1-propylcyclohexane-carboxylic acid], the IC50 amounted to 4.9 nM.

Consider `Nc1nccn2c(C34CCCC(C(=O)O)(CC3)CC4)nc(-c3ccc(Oc4ccccc4)cc3)c12` [Example 21, 5-[8-amino-1-(4-phenoxyphenyl)imidazo[1,5-a]pyrazin-3-yl]bicyclo[3.2.2] nonane-1-carboxylic acid], for which the IC50 worked out at 0.14 nM.
